By EC50 is commonly meant the concentration at which the effect is half-maximal. Low readings indicate an effect from little substance, high ones a need for much substance.

Test [1] addresses T1, S1P4 (Homo sapiens, UniProt O95977, E122Q).
T1 construct: gene S1PR4; HA-S1P4(E3.29(122)Q)-Gαi1(C351I) fusion in CHO-K1 membranes, pertussis toxin treated; with Gαi1(C351I) (fused)
T1 sequence (O95977 1-384 E122Q): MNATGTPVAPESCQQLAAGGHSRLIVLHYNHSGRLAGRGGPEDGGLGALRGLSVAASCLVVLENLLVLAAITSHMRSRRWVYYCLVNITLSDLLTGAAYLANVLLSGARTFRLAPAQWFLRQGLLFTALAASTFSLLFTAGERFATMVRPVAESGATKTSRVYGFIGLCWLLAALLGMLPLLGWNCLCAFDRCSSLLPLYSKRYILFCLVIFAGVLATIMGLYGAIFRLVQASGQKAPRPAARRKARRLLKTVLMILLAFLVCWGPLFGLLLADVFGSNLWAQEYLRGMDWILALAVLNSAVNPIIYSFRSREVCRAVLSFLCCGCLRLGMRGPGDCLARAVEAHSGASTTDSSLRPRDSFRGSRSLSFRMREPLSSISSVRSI
The test can be described thus: […]GTPγS binding assay at a single […] concentration (weak agonist). It is filed as cell-based. The following applies: read-out: % stimulation over basal at 10 μM.

In test [2] the target is T2, S1P4 (Homo sapiens, UniProt O95977).
T2 construct: gene S1PR4
T2 sequence (O95977 1-384): T1 sequence (O95977 1-384 E122Q) with Q122E
The test is described as follows: […]GTPγS binding assay, CHO-K1 membranes. It is filed as biochemical. In general terms: Binding of GTPγS marks nucleotide exchange on a G protein.

Residue numbers refer to the chain shown, from its start.

As for `CCCCCCCCCCCCCCCC(=O)OC[C@@H](O)COP(=O)(O)O` [16:0 LPA], the activation at 10 µM on S1P4 [1] is about 19%.

With `CCCCCCCCCCCCC/C=C/[C@@H](O)[C@@H](N)COP(=O)(O)O` [S1P, Sphingosine-1-phosphate], a half-maximal response at S1P4 [2] (EC50) required 355 ± 155 nM.

The values are drawn from paper PMC514652, “A single amino acid determines preference between phospholipids and reveals length restriction for activation ofthe S1P4 receptor” (BMC Biochemistry, 2004).
